In experiment [1] the test system is T-Rex 293 cells having increased expression of estrogen receptor alpha protein. Description: Cellular growth inhibition assay, T-Rex 293 cells, (+) doxycycline. The format is cell-based. Particulars: T-REx-293, 72 h, 72 hours. Here is the method:
(§1) Exemplary compounds were tested for the ability to inhibit the proliferation of the following types of cells: (i) a T-Rex 293 cell line having increased expression of estrogen receptor alpha protein from exposure to doxycycline and (ii) a T-Rex 293 cell line lacking increased expression of estrogen receptor alpha protein.
(§2) The following types of cells were prepared for this experiment: (i) a T-Rex 293 cell line having increased expression of estrogen receptor alpha protein from exposure to doxycycline and (ii) a T-Rex 293 cell line lacking increased expression of estrogen receptor alpha protein. The ability of the test compounds to inhibit proliferation of the foregoing cell types was evaluated according to the procedures set forth below.
(§3) The doxycycline-inducible estrogen receptor alpha protein expressing cell line was established using the following protocol: T-Rex 293 cells were purchased from Invitrogen (Cat #R71007) and transfected using Lipofectamine 2000 with the wild-type estrogen receptor alpha protein sequence cloned into the pcDNA4/TO vector. Transfected cells were selected using 400 μg/mL Zeocin (Invitrogen Cat #R25001). Following selection, single clones were raised and maintained in Dulbecco's Modified Eagle Medium (DMEM) supplemented with 10% w/w Tetracycline-free fetal bovine serum (FBS) and 250 μg/mL Zeocin. Clones were analyzed for expression of estrogen receptor alpha protein in the presence and absence of 3 ng/mL doxycycline (Sigma Cat #D9891), and a single doxycycline-inducible clone (hereinafter “SC”) was selected for use in downstream assays.
(§4) The SC cells were seeded on poly-D-lysine coated, black clear-bottom 384-well plates at 2500/well, in 25 μL Phenol Red Free Dulbecco's Modified Eagle Medium (DMEM) supplemented with 10% w/w charcoal-dextran treated fetal bovine serum (FBS) and 1% w/w pen-strep, with or without 3 ng/mL doxycycline. Pen-Strep is a commercially available mixture of penicillin G and streptomycin, which is used in mammalian cell culture media to prevent bacterial contamination. Phenol Red Free Dulbecco's Modified Eagle Medium (DMEM) supplemented with 10% w/w charcoal-dextran treated fetal bovine serum (FBS) and 1% w/w pen-strep, with or without 3 ng/mL doxycycline is herein referred to as Treatment Medium. Following seeding of cells in the plates, the plates were spun at 300×g for 30 seconds, then equilibrated to room temperature for 30 minutes, and then deposited in a humidified tissue culture incubator maintained at 37° C. with 5% CO2.
(§5) At 24 hours after seeding of the cells, dilutions of test compound were prepared in DMSO and dissolved in Treatment Medium, to achieve a final DMSO concentration of 0.5% w/w, thereby providing the Test Compound Solution. A 25 μL aliquot of the Test Compound Solution was added to cells in the well plates. An equal volume of a solution containing DMSO and Treatment Medium was used as a negative control. Following treatment of cells with Test Compound Solution or said equal volume of a solution containing DMSO and Treatment Medium, the plates were spun at 300×g for 30 seconds, and then left in an incubator for 72 hours.
(§6) At the end of the treatment duration, cell viability was quantified with CellTiter-Glo 2.0 reagent (Promega Cat #G9243). For this purpose, plates were equilibrated to room temperature for 30 minutes, and then 25 μL of CellTiter-Glo 2.0 reagent was added to cells in the plate wells. Plates were then agitated on a shaker for two minutes at 500 rpm and subsequently incubated at room temperature for 10 minutes. Following incubation, the plates were spun at 3000×g for 30 seconds, then sealed with an optical adhesive cover, and luminescence readings were measured with an EnVision Plate Reader (Perkin Elmer).
(§7) Data was normalized using zero luminescence for baseline. […]

Experiment [2] concerns T-Rex 293 cells lacking increased expression of estrogen receptor alpha protein. Description: Cellular growth inhibition assay, T-Rex 293 cells, (−) doxycycline. The format is cell-based. Particulars: T-REx-293, 72 h, 72 hours. As to the method:
as §1, §2, §3, §4, §5, §6, §7

[3] abbreviates: Table 7-A, T-Rex 293 cells with doxycycline (increased ERα expression), CellTiter-Glo, read-out: (+) Dox GI50.
Setting [4] is: Table 7-A, T-Rex 293 cells without doxycycline (lacking increased ERα expression), CellTiter-Glo, read-out: (−) Dox GI50.

Like-named read-outs stand apart in the source and are kept apart here. Bounds are passed on as bounds.

A word on the GI50: it is the concentration giving 50% growth inhibition. Consider `COc1cc(N2CCN(CC3(O)CCN(c4ccc(C5=N[C@@H](C)c6nnc(C)n6-c6sc(C)c(C)c65)cc4)CC3)CC2)ccc1[C@@H]1c2ccc(O)cc2CC[C@@H]1c1ccccc1` (single isomer, unassigned) [III-321], for which the GI50 is less than 50 nM in experiment [1] (setting [3]) and 500 to 2500 nM in experiment [2] (setting [4]).

On to `COc1cc(N2CCN(CC3(O)CCN(c4ccc(C5=N[C@@H](C)c6nnc(C)n6-c6sc(C)c(C)c65)cc4)CC3)CC2)ccc1[C@H]1c2ccc(O)cc2CC[C@H]1c1ccccc1` (single isomer, unassigned) [III-322], for which the concentration for 50% growth inhibition (GI50) in experiment [1] (setting [3]) and in experiment [2] (setting [4]) was 50 to 500 nM throughout.

With `COc1cc(N2CCN(CC3(O)CCN(c4ccc(C5=N[C@@H](C)c6nnc(C)n6-c6sc(C)c(C)c65)c(F)c4)CC3)CC2)ccc1[C@H]1c2ccc(O)cc2CC[C@H]1c1ccc(F)cc1` (single isomer, unassigned) [III-327], the GI50 in experiment [1] (setting [3]) and in experiment [2] (setting [4]) was 50 to 500 nM each time.

As for `COc1cc(N2CCN(CC3(O)CCN(c4ccc(C5=N[C@@H](C)c6nnc(C)n6-c6sc(C)c(C)c65)cc4)CC3)CC2)ccc1[C@H]1c2ccc(O)cc2CC[C@H]1c1ccc(F)cc1F` (single isomer, unassigned) [III-333], the concentration for 50% growth inhibition (GI50) in experiment [1] (setting [3]) was in the range of 50 to 500 nM; in experiment [2] (setting [4]), 500 to 2500 nM.

As to `COc1cc(N2CCN(CC3(O)CCN(c4ccc(C5=N[C@@H](C)c6nnc(C)n6-c6sc(C)c(C)c65)cc4)CC3)CC2)ccc1[C@@H]1c2ccc(O)cc2CC[C@@H]1c1ccc(F)cc1F` (single isomer, unassigned) [III-334], the values for the GI50 in experiment [1] (setting [3]) and in experiment [2] (setting [4]) were less than 50 nM and 500 to 2500 nM, respectively.

Regarding `COc1ccc([C@@H]2CCc3cc(O)ccc3[C@@H]2c2ccc(N3CCN(CC4(O)CCN(c5ccc(C6=N[C@@H](C)c7nnc(C)n7-c7sc(C)c(C)c76)cc5)CC4)CC3)cc2Cl)cc1` (single isomer, unassigned) [III-335], the values for the concentration for 50% growth inhibition (GI50) in experiment [1] (setting [3]) and in experiment [2] (setting [4]) were 50 to 500 nM and 500 to 2500 nM, respectively.

As for `COc1ccc([C@H]2CCc3cc(O)ccc3[C@H]2c2ccc(N3CCN(CC4(O)CCN(c5ccc(C6=N[C@@H](C)c7nnc(C)n7-c7sc(C)c(C)c76)cc5)CC4)CC3)cc2Cl)cc1` (single isomer, unassigned) [III-336], the GI50 was less than 50 nM in experiment [1] (setting [3]) and 500 to 2500 nM in experiment [2] (setting [4]).

`Cn1cc(-c2cc(C(C)(C)O)ccc2Oc2ccc(N3CCN(CC4CCN(c5ccc([C@@H]6c7ccc(O)cc7CC[C@@H]6c6ccccc6)cc5)CC4)CC3)cc2)c2cc[nH]c2c1=O` [I-18, 4-(2-(4-(4-((1-(4-((1R,2S)-6-hydroxy-2-phenyl-1,2,3,4-tetrahydronaphthalen-1-yl)phenyl)piperidin-4-yl)methyl)piperazin-1-yl)phenoxy)-5-(2-hydroxypropan-2-yl)phenyl)-6-methyl-1,6-dihydro-7H-pyrrolo[2,3-c]pyridin-7-one]: the GI50 in experiment [1] (T-Rex 293 cells with doxycycline-induced ERα expression, CellTiter-Glo 2.0, read-out: (+) Dox TRex ERa (GI50)) was less than 50 nM; in experiment [2] (T-Rex 293 cells without doxycycline, CellTiter-Glo 2.0, read-out: (−) Dox TRex ERa (GI50)) it was 50 to 500 nM.

On to `Cc1sc2c(c1C)C(c1ccc(N3CC(N4CCN(CCOc5ccc([C@@H]6c7ccc(O)cc7CC[C@@H]6c6ccccc6)cc5)CC4)C3)cc1)=NC(Cc1ncco1)c1nnc(C)n1-2` (stereo partly shown) [III-41], for which the concentration for 50% growth inhibition (GI50) in experiment [1] (setting [3]) was less than 50 nM; in experiment [2] (setting [4]), 50 to 500 nM.

Consider `COc1cc(N2CCN(CC3CCN(c4ccc(C5=N[C@@H](C)c6nnc(C)n6-c6sc(C)c(C)c65)cc4)CC3)CC2)c(F)cc1[C@@H]1c2ccc(O)cc2CC[C@@H]1c1ccc(F)cc1` [III-313], for which the concentration for 50% growth inhibition (GI50) in experiment [1] (setting [3]) was less than 50 nM; in experiment [2] (setting [4]) it was 500 to 2500 nM.

For the compound `COc1cc(N2CCN(CC3CCN(c4ccc(C5=N[C@@H](C)c6nnc(C)n6-c6sc(C)c(C)c65)cc4)CC3)CC2)c(F)cc1[C@H]1c2ccc(O)cc2CC[C@H]1c1ccc(F)cc1` [III-314], the GI50 in experiment [1] (setting [3]) was 50 to 500 nM; in experiment [2] (setting [4]) it was 500 to 2500 nM.

Regarding `COc1cc(N2CCN(CC3CCN(c4ccc(C5=N[C@@H](C)c6nnc(C)n6-c6sc(C)c(C)c65)cc4)CC3)CC2)ccc1[C@H]1c2ccc(O)cc2CC[C@H]1c1ccc(F)cc1` [III-315], the 50% growth inhibitory concentration (GI50) in experiment [1] (setting [3]) and in experiment [2] (setting [4]) was 500 to 2500 nM each time.

For the compound `COc1cc(N2CCN(CC3CCN(c4ccc(C5=N[C@@H](C)c6nnc(C)n6-c6sc(C)c(C)c65)cc4)CC3)CC2)ccc1[C@@H]1c2ccc(O)cc2CC[C@@H]1c1ccc(F)cc1` [III-316], the concentration for 50% growth inhibition (GI50) in experiment [1] (setting [3]) is less than 50 nM; in experiment [2] (setting [4]) it was 500 to 2500 nM.

Take `COc1cc(N2CCN(CC3(O)CCN(c4ccc(C5=N[C@@H](C)c6nnc(C)n6-c6sc(C)c(C)c65)cc4)CC3)CC2)c(F)cc1[C@H]1c2ccc(O)cc2CC[C@H]1c1ccc(F)cc1` [III-319]: the GI50 was less than 50 nM in experiment [1] (setting [3]) and 50 to 500 nM in experiment [2] (setting [4]).

`COc1cc(N2CCN(CC3(O)CCN(c4ccc(C5=N[C@@H](C)c6nnc(C)n6-c6sc(C)c(C)c65)cc4)CC3)CC2)c(F)cc1[C@@H]1c2ccc(O)cc2CC[C@@H]1c1ccc(F)cc1` [III-320]: the 50% growth inhibitory concentration (GI50) is less than 50 nM in experiment [1] (setting [3]) and 500 to 2500 nM in experiment [2] (setting [4]).

As for `Cc1sc2c(c1C)C(c1ccc(N3CCC(CN4CCN(c5ccc([C@@H]6c7ccc(O)cc7CC[C@@H]6c6ccccc6F)c(F)c5)CC4)CC3)cc1)=N[C@@H](C)c1nnc(C)n1-2` [III-323], the GI50 in experiment [1] (setting [3]) was less than 50 nM; in experiment [2] (setting [4]) it was 500 to 2500 nM.

For the compound `Cc1sc2c(c1C)C(c1ccc(N3CCC(CN4CCN(c5ccc([C@H]6c7ccc(O)cc7CC[C@H]6c6ccccc6F)c(F)c5)CC4)CC3)cc1)=N[C@@H](C)c1nnc(C)n1-2` [III-324], the concentration for 50% growth inhibition (GI50) in experiment [1] (setting [3]) and in experiment [2] (setting [4]) was 50 to 500 nM throughout.

For `Cc1sc2c(c1C)C(c1ccc(N3CCC(CN4CCN(c5ccc([C@@H]6c7ccc(O)cc7CC[C@@H]6c6cccc(F)c6)c(F)c5)CC4)CC3)cc1)=N[C@@H](C)c1nnc(C)n1-2` [III-325], the 50% growth inhibitory concentration (GI50) was in the range of 50 to 500 nM in experiment [1] (setting [3]) and 500 to 2500 nM in experiment [2] (setting [4]).

On to `Cc1sc2c(c1C)C(c1ccc(N3CCC(CN4CCN(c5ccc([C@H]6c7ccc(O)cc7CC[C@H]6c6cccc(F)c6)c(F)c5)CC4)CC3)cc1)=N[C@@H](C)c1nnc(C)n1-2` [III-326], for which the GI50 in experiment [1] (setting [3]) and in experiment [2] (setting [4]) was 500 to 2500 nM in each case.

For `COc1cc(N2CCN(CC3(O)CCN(c4ccc(C5=N[C@@H](C)c6nnc(C)n6-c6sc(C)c(C)c65)c(F)c4)CC3)CC2)ccc1[C@@H]1c2ccc(O)cc2CC[C@@H]1c1ccc(F)cc1` [III-328, 1-(3-fluoro-4-((6S)-2,3,6,9-tetramethyl-6H-thieno[3,2-f][1,2,4]triazolo[4,3-a][1,4]diazepin-4-yl)phenyl)-4-((4-(4-((1S,2S)-2-(4-fluorophenyl)-6-hydroxy-1,2,3,4-tetrahydronaphthalen-1-yl)-3-methoxyphenyl)piperazin-1-yl)methyl)piperidin-4-ol], the 50% growth inhibitory concentration (GI50) in experiment [1] (setting [3]) was less than 50 nM; in experiment [2] (setting [4]), 500 to 2500 nM.

For `COc1cc(N2CCN(CC3CCN(c4ccc(C5=N[C@@H](C)c6nnc(C)n6-c6sc(C)c(C)c65)cc4)CC3)CC2)ccc1[C@H]1c2ccc(O)cc2CC[C@H]1c1ccc(C)cc1` [III-329], the 50% growth inhibitory concentration (GI50) in experiment [1] (setting [3]) and in experiment [2] (setting [4]) was 50 to 500 nM each time.

With `COc1cc(N2CCN(CC3CCN(c4ccc(C5=N[C@@H](C)c6nnc(C)n6-c6sc(C)c(C)c65)cc4)CC3)CC2)ccc1[C@@H]1c2ccc(O)cc2CC[C@@H]1c1ccc(C)cc1` [III-330], the GI50 was less than 50 nM in experiment [1] (setting [3]) and 50 to 500 nM in experiment [2] (setting [4]).

On to `COc1cc(N2CCN(CC3CCN(c4ccc(C5=N[C@@H](C)c6nnc(C)n6-c6sc(C)c(C)c65)c(F)c4)CC3)CC2)ccc1[C@H]1c2ccc(O)cc2CC[C@H]1c1ccc(C)cc1` [III-331], for which the GI50 in experiment [1] (setting [3]) and in experiment [2] (setting [4]) was 500 to 2500 nM each time.

These data come from patent US12558428B2, “Heterobifunctional compounds and their use in treating disease” (Halda Therapeutics OpCo, Inc., priority 2024, dated 2026).
